This passage reports IC50 results from US6723753B2, “Substituted n-benzyl-n-phenyl aminoalcohol compounds useful for inhibiting cholesteryl ester transfer protein activity” (Pharmacia Corporation, priority 2002, dated 2004).

This test addresses T1, CETP (Homo sapiens, UniProt P11597).
T1 sequence (P11597 18-493): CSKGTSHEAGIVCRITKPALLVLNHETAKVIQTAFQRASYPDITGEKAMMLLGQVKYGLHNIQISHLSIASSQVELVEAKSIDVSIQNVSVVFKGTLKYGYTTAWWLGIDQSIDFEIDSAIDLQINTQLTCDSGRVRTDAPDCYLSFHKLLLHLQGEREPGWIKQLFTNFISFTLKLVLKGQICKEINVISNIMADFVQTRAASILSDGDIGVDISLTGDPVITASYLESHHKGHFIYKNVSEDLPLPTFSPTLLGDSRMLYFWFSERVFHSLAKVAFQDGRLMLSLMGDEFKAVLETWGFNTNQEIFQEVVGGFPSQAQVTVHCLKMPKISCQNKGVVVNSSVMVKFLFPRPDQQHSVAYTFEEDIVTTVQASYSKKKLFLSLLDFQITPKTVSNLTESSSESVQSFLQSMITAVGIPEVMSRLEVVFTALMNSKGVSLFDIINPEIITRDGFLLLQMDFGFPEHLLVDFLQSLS
In words: Assay of CETP Inhibition using Purified Components (Reconstituted Buffer Assay). It is filed as biochemical. Details: made in house; host or cells: CHO cells (serum-free conditioned medium). Conditions: Inhibition of CETP activity in reconstituted buffer assay; transfer of [3H]CE from HDL to LDL; read-out: IC50. The essentials:
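Transfer of radiolabeled cholesteryl ester from HDL to LDL was run for 2 h at 37 °C in pH 7.4 Tris buffer with 1% BSA, using purified CHO-expressed human CETP. Precipitated LDL radioactivity, measured by scintillation after dextran sulfate/MgCl2 precipitation and filtration, yielded the IC50.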

Take `OC(CN(Cc1ccc(C(F)(F)F)cc1)Cc1ccccc1F)C(F)(F)F` (stereo not drawn) [compound 171]: the IC50 was over 100 µM.

In the case of `OC(CCN(Cc1cccc(OC(F)(F)F)c1)Cc1cccc(OC(F)(F)F)c1)C(F)(F)F` (stereo not drawn) [Example 611, 4-[bis-[[3-(trifluoromethoxy)phenyl]methyl]amino]-1,1,1-trifluoro-2-butanol], the IC50 came to 12 µM.

Take `OC(COC(F)(F)C(F)F)CN(Cc1cccc(OC(F)(F)C(F)F)c1)c1cccc(Oc2ccccc2)c1` (stereo not drawn) [Example 212]: the IC50 came out at 1.8 µM.

As to `CON(C)C(=O)c1cccc(CN(CC(O)C(F)(F)F)c2cccc(Oc3ccccc3)c2)c1` (stereo not drawn) [620A], the IC50 came to 24.6 µM.

Turning to `O=C(NC1CCCCC1)c1cccc(N(Cc2cccc(OC(F)(F)C(F)F)c2)CC(O)C(F)(F)F)c1` (stereo not drawn) [Example 459], the IC50 was 3.3 µM.

As for `Cc1cccc(CN(CC(O)C(F)(F)F)c2ccc(F)c(F)c2)c1` (stereo not drawn) [Example 17], the IC50 is 45 µM.

Regarding `CC(C)(C)C(=O)COc1cccc(N(Cc2cccc(OC(F)(F)C(F)F)c2)CC(O)C(F)(F)F)c1` (stereo not drawn) [Example 513], the IC50 turned out to be 2.1 µM.

With `OC(CN(Cc1cccc(OC(F)(F)C(F)F)c1)c1cccc(NCc2ccc(F)cc2)c1)C(F)(F)F` (stereo not drawn) [Example 543], the IC50 was 2.7 µM.

`CC(C)C(=O)Nc1cccc(N(Cc2cccc(OC(F)(F)C(F)F)c2)CC(O)C(F)(F)F)c1` (stereo not drawn) [Example 540]: the IC50 is over 50 µM.

For the compound `OC(CN(Cc1cccc(OC(F)(F)F)c1)c1ccccc1)C(F)(F)F` (stereo not drawn) [Example 73], the IC50 was determined as 3 µM.

In the case of `COc1ccc(CCCN(CC(O)C(F)(F)F)c2cccc(OC(F)(F)F)c2)cc1` (stereo not drawn) [Example 338], the IC50 was over 100 µM.

As for `Cc1cccc(N(Cc2cccc(OC(F)(F)F)c2)CC(O)C(F)(F)F)c1` (stereo not drawn) [Example 72], the IC50 was determined as 10 µM.

Consider `OC(CN(CCc1c[nH]c2ccccc12)c1cccc(OC(F)(F)F)c1)C(F)(F)F` (stereo not drawn) [Example 344], for which the IC50 is over 100 µM.

Take `OC(CN(Cc1cccc(OC(F)(F)C(F)F)c1)c1cccc(Cc2ccc(F)cc2)c1)C(F)(F)F` (stereo not drawn) [Example 519]: the IC50 is 2.5 µM.

Turning to `OC(CN(Cc1ccc2c(c1)OCCO2)c1cccc(OC(F)(F)F)c1)C(F)(F)F` (stereo not drawn) [Example 105], the IC50 came to 35 µM.

Regarding `OC(c1ccccc1)c1cccc(N(Cc2cccc(OC(F)(F)C(F)F)c2)CC(O)C(F)(F)F)c1` (stereo not drawn) [Example 583, α-Phenyl-3-[[[3-(1,1,2,2-tetrafluoroethoxy)phenyl]methyl]](3,3,3-trifluoro-2-hydroxypropyl)benzenemethanol], the IC50 was 6.4 µM.

With `OC(CN(Cc1cccc(OC(F)(F)C(F)F)c1)c1cccc(Oc2cc3ccccc3cn2)c1)C(F)(F)F` (stereo not drawn) [Example 284], the IC50 is over 50 µM.

`O=S(=O)(CCOc1cccc(N(Cc2cccc(OC(F)(F)C(F)F)c2)CC(O)C(F)(F)F)c1)c1ccccc1` (stereo not drawn) [Example 497]: the IC50 was found to be 42 µM.

With `COc1cccc(N(Cc2ccc(C(F)(F)F)cc2)CC(O)C(F)(F)F)c1` (stereo not drawn) [Example 26], the IC50 was determined as 8 µM.

In the case of `O=C1c2ccccc2C(=O)c2cc(CN(CC(O)C(F)(F)F)c3cccc(OC(F)(F)F)c3)ccc21` (stereo not drawn) [Example 342], the IC50 was found to be 70 µM.

Turning to `CC(c1cccc(OC(F)(F)F)c1)N(CC(O)C(F)(F)F)c1cccc(Oc2ccccc2)c1` (stereo not drawn) [Example 206], the IC50 was over 100 µM.

With `OC(CN(Cc1cccc(Oc2ccccc2)c1)c1ccc(-c2ccccc2)cc1)C(F)(F)F` (stereo not drawn) [Example 86], the IC50 was found to be 20 µM.

As to `OC(CN(Cc1ccccc1Cl)Cc1ccccc1C(F)(F)F)C(F)(F)F` (stereo not drawn) [compound 177], the IC50 was over 100 µM.

Take `CC(=O)CCCCOc1cccc(N(Cc2cccc(OC(F)(F)C(F)F)c2)CC(O)C(F)(F)F)c1` (stereo not drawn) [Example 495]: the IC50 worked out at 1.5 µM.

`OC(CN(Cc1cccc(C(F)(F)F)c1)c1ccc(C#Cc2ccccc2)c(C(F)(F)F)c1)C(F)(F)F` (stereo not drawn) [Example 622]: the IC50 stood at 3.5 µM.

For the compound `Cc1ccc(N(Cc2ccccc2)CC(O)C(F)(F)F)cc1` (stereo not drawn) [Example 14], the IC50 stood at 60 µM.

For the compound `CCC(=O)c1cccc(CN(CC(O)C(F)(F)F)c2cccc(Oc3ccccc3)c2)c1` (stereo not drawn) [Example 620, 1-[3-[[(3-phenoxyphenyl)(3,3,3-trifluoro-2-hydroxypropyl)-amino]methyl]phenyl]-1-propanone], the IC50 came to 5 µM.

Consider `OC(CN(Cc1ccc(Oc2ccccc2)cc1)c1cccc(Oc2ccccc2)c1)C(F)(F)F` (stereo not drawn) [Example 153], for which the IC50 worked out at 4 µM.

As for `OC(CN(Cc1cccc(OC(F)(F)C(F)F)c1)c1cccc(OCc2cccnc2)c1)C(F)(F)F` (stereo not drawn) [Example 428], the IC50 was 6.8 µM.

Consider `CC(C)c1ccc(COc2cccc(N(Cc3cccc(OC(F)(F)C(F)F)c3)CC(O)C(F)(F)F)c2)cc1` (stereo not drawn) [Example 427], for which the IC50 stood at 0.42 µM.

Consider `OC(CN(Cc1ccc(OC(F)(F)F)cc1)c1cc(F)cc(F)c1)C(F)(F)F` (stereo not drawn) [Example 68], for which the IC50 was found to be 15 µM.

In the case of `COCCOc1cccc(N(Cc2cccc(OC(F)(F)C(F)F)c2)CC(O)C(F)(F)F)c1` (stereo not drawn) [Example 505], the 50% inhibitory concentration (IC50) turned out to be 1.7 µM.

Take `OC(CN(Cc1cccc(OC(F)(F)C(F)F)c1)c1cccc(Oc2cc(F)ccn2)c1)C(F)(F)F` (stereo not drawn) [Example 443]: the IC50 was over 50 µM.

Regarding `O=[N+]([O-])c1ccc(COc2cccc(N(Cc3cccc(OC(F)(F)C(F)F)c3)CC(O)C(F)(F)F)c2)cc1` (stereo not drawn) [Example 375], the IC50 was 4.5 µM.

Take `Cc1cccc(CN(CC(O)C(F)(F)F)c2ccc(F)c(C(F)(F)F)c2)c1` (stereo not drawn) [Example 58]: the IC50 was 15 µM.

For `COc1cc(CN(CC(O)C(F)(F)F)c2cccc(OC(F)(F)F)c2)ccc1OC(C)=O` (stereo not drawn) [Example 119], the IC50 was found to be 70 µM.

`OC(CN(Cc1cccc(-c2ccccc2)c1)c1cccc(Oc2ccccc2)c1)C(F)(F)F` (stereo not drawn) [Example 606]: the IC50 was determined as 4.2 µM.

With `OC(CN(Cc1cccc(OC(F)(F)C(F)F)c1)c1cccc(Oc2cccc(-c3ccccc3)c2)c1)C(F)(F)F` (stereo not drawn) [Example 264], the IC50 came out at 1.4 µM.

`CC(C)C(=O)c1cccc(N(Cc2cccc(OC(F)(F)C(F)F)c2)CC(O)C(F)(F)F)c1` (stereo not drawn) [Example 582]: the IC50 is 1.4 µM.

As to `OC(CN(Cc1ccc(Oc2ccccc2)cc1)c1ccc(Oc2ccccc2)cc1)C(F)(F)F` (stereo not drawn) [Example 154], the IC50 was over 100 µM.

As for `COc1ccc(CN(CC(O)C(F)(F)F)c2cccc(OC(F)(F)F)c2)cc1` (stereo not drawn) [Example 347], the IC50 was 15 µM.

In the case of `OC(CN(Cc1cccc(OC(F)(F)C(F)F)c1)c1cccc(OCc2nccn2Cc2ccccc2)c1)C(F)(F)F` (stereo not drawn) [Example 430], the IC50 was over 50 µM.

In the case of `OC(CN(Cc1ccc(Oc2ccc(Cl)c(Cl)c2)cc1)c1cccc(Oc2ccccc2)c1)C(F)(F)F` (stereo not drawn) [Example 685], the IC50 turned out to be 60 µM.

For `OC(CN(Cc1cccc(OC(F)(F)C(F)F)c1)c1cccc(-c2cccs2)c1)C(F)(F)F` (stereo not drawn) [Example 452], the IC50 was found to be 2.7 µM.

As to `COc1cccc(NC(=O)Nc2cccc(N(Cc3cccc(OC(F)(F)C(F)F)c3)CC(O)C(F)(F)F)c2)c1` (stereo not drawn) [Example 547], the IC50 was over 50 µM.

Take `CC(C)C(O)c1cccc(N(Cc2cccc(OC(F)(F)C(F)F)c2)CC(O)C(F)(F)F)c1` (stereo not drawn) [compound 584]: the IC50 stood at 1.7 µM.

Regarding `Cc1ccc(N(Cc2cccc(C)c2)CC(O)C(F)(F)F)cc1` (stereo not drawn) [Example 5], the IC50 is over 100 µM.

Turning to `CCc1ccc(COc2cccc(N(Cc3cccc(OC(F)(F)C(F)F)c3)CC(O)C(F)(F)F)c2)cc1` (stereo not drawn) [Example 415], the IC50 was determined as 0.29 µM.
